Reference: PMC7702303, “Biochemical and transcript level differences between the three human phosphofructokinases show optimisation of each isoform for specific metabolic niches” (Biochemical Journal, 2020)
Several values for one entry are separate records, joined by “and”; a condition that tells them apart may be missing. Equal values may be shown once. Read-outs that look alike come from different tables or passages of the source.

Assays:
recombinant human PFK-L = biological target: T1, recombinant human PFK-L (Homo sapiens, UniProt P17858); assay: ALDO-TIM-G3PDH enzyme-linked kinetic assay, PFK-L; format: biochemical; details: PFK-L; for K0.5F6P + modulator / VmaxF6P + modulator: ATP 0.5mM
T1 construct: made in house; host or cells: PFK-deficient Saccharomyces cerevisiae
T1 sequence (P17858 1-780): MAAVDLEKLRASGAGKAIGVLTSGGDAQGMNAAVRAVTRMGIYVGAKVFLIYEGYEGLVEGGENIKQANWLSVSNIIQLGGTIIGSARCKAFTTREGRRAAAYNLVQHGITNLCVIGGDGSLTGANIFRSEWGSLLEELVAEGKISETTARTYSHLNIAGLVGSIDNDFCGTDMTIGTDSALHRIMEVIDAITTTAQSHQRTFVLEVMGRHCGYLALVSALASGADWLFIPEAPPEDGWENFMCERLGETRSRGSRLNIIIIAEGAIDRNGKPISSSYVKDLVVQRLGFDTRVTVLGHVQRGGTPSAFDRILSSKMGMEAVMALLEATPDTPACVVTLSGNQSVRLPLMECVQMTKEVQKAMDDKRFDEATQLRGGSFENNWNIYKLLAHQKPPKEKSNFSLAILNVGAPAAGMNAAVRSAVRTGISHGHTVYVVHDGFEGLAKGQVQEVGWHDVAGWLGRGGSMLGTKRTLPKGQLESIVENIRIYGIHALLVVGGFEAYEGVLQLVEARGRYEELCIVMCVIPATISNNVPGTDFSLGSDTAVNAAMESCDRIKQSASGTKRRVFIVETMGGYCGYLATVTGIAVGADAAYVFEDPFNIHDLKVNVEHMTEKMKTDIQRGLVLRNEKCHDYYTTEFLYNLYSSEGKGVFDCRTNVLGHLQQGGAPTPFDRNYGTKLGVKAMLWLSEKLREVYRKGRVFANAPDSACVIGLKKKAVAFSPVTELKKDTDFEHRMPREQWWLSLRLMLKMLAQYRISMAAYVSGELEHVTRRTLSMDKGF
Procedure: Recombinant human PFKs were expressed in PFK-deficient Saccharomyces cerevisiae and purified using the methods described previously, adapting earlier materials and protocols. Production of PFK intended for use in ATP titration experiments used 1 mM F6P as a tetramer stabilising agent in protein purification and storage buffers. Production of PFK intended for use in F6P titration experiments used 1 mM ATP as a tetramer stabilising agent in protein purification and storage buffers. Experimental details on the purification and characterisation procedures including figures showing SDS–PAGE gels of the highly pure PFKs used in the kinetic experiments described in this work have been recently published.
Assay buffer consisted of 50 mM TEA, 100 mM KCl, 10 mM MgCl2, 1 mM Tris(2-carboxyethyl)phosphine hydrochloride (TCEP), 10% glycerol, pH 7.4. Assay mix consisted of 5 units/ml glycerol-3-phosphate dehydrogenase (G3PDH, Sigma–Aldrich G6880), 2.5 units/ml aldolase (Sigma–Aldrich A2714), 25 units/ml triosephosphate isomerase (TIM, Sigma–Aldrich T6258), and 1.25 mM NADH. ATP and F6P were obtained from Sigma–Aldrich (A2383 and F3627, respectively). For ATP titrations, 38 µl of buffer or ligand were added to a clear non-binding 96-well plate. 40 µl of assay mix containing 10 mM F6P (final concentration 4 mM) was added and the plate was incubated at 25°C for 5 min. An amount of 2 µl of PFK isoforms were added to each well from stock concentrations of 150 µg/ml and the reaction was immediately started with 20 µl of ATP at varying concentrations. For F6P titrations, 30 µl of buffer or ligand was added to a clear non-binding 96-well plate. An amount of 40 µl of assay mix containing 1.25 mM ATP (final concentration 0.5 mM) was added and the plate was incubated at 25°C for 5 min. An amount of 5 µl of PFK isoforms were added to each well from stock concentrations of 200 µg/ml and the reaction was immediately started with 20 µl F6P at varying concentrations. All ligands and substrates (including ATP) were used at pH 7.4. All metabolites were obtained from Sigma–Aldrich unless otherwise stated. […] A SpectraMax M5 Multi-Mode Microplate Reader was used to measure A340nm at 13 s intervals for 10 min. All experiments were performed in triplicate unless otherwise stated.
Time-dependent absorbance change was converted into rate of NADH oxidation (µM s^−1) or specific activity (µmol min^−1 mg protein^−1) using the Beer-Lambert law (molar extinction coefficient of NADH 6.22 mM^−1 cm^−1). The initial rate of reaction was used to avoid accumulation of ADP, which activates PFK, interfering with the determination of kinetic properties. Non-linear regression analysis was performed on substrate titration data using GraphPad Prism 7, with curves fitted using allosteric sigmoidal models, enabling determination of steady-state kinetic values.

PFKM = details: PFKM, cited from earlier work; for IC50: read-out: IC50 or AC50 (inhibitor)
PFKL = details: cited from earlier work
PFKP = details: cited from earlier work
[1] = modulator 600 µM, N=3, mean (SD)
[2] = modulator 600 µM, F6P 4mM, N=3, mean (SD)
[3] = modulator 1200 µM, N=3, mean (SD)
[4] = modulator 1200 µM, F6P 4mM, N=3, mean (SD)
[5] = ATP titration, F6P 4 mM, n = 6, mean (SD)
[6] = control without modulator, run alongside modulator experiments, F6P 4mM, N=3, mean (SD)
[7] = ref Foe and Kemp, 1985, read-out: IC50 or AC50 (inhibitor)
[8] = ref Vora 1985, read-out: IC50 or AC50 (inhibitor)

In the case of `Nc1ncnc2c1ncn2[C@@H]1O[C@H](COP(=O)(O)OP(=O)(O)O)[C@@H](O)[C@H]1O` [ADP], the “effect on PFK activity, in words” value (recombinant human PFK-L) is reported as “mixed effects”, the “change in kcat^ATP/K0.5^ATP compared with control PFK without modulator” value (recombinant human PFK-L; modulator 600 µM) is reported as −47% and the “change in kcat^F6P/K0.5^F6P compared with control PFK without modulator” value (recombinant human PFK-L; modulator 600 µM) is reported as “+157%”. For the same molecule, the “K0.5F6P + modulator” value (recombinant human PFK-L; [1]) was 872.9 (14.9) M, the “VmaxF6P + modulator” value (recombinant human PFK-L; [1]) was 5.65 (0.07) moles/min/mg and the “K0.5ATP + modulator” value (recombinant human PFK-L; [2]) was 362.0 (46.5) M. For the same molecule, the “VmaxATP + modulator” value (recombinant human PFK-L; [2]) was 49.38 (2.48) moles/min/mg.

In the case of `Nc1ncnc2c1ncn2[C@@H]1O[C@H](COP(=O)(O)O)[C@@H](O)[C@H]1O` [AMP], the “decrease in K0.5^F6P by AMP” value (recombinant human PFK-L; F6P titration) is reported as “more than 5 fold”, the “change in kcat^ATP/K0.5^ATP compared with control PFK without modulator” value (recombinant human PFK-L; modulator 1200 µM) is reported as “+9%” and the “change in kcat^F6P/K0.5^F6P compared with control PFK without modulator” value (recombinant human PFK-L; modulator 1200 µM) is reported as “+766%”. The “K0.5F6P + modulator” value (recombinant human PFK-L; [3]) was 260.6 (8.2) M, the “VmaxF6P + modulator” value (recombinant human PFK-L; [3]) was 5.68 (0.06) moles/min/mg and the “K0.5ATP + modulator” value (recombinant human PFK-L; [4]) was 156.9 (17.6) M. The “VmaxATP + modulator” value (recombinant human PFK-L; [4]) was 44.45 (1.74) moles/min/mg, the IC50 or AC50 (activator) (PFKM; ref Foe and Kemp, 1985) was 10 µM and the IC50 or AC50 (activator) (PFKL; ref Foe and Kemp, 1985) was 10 µM. The IC50 or AC50 (activator) (PFKP; ref Foe and Kemp, 1985) was 75 µM and the IC50 or AC50 (activator) (PFKP; ref Sanchez-Martinez et al., 2000) was 8 µM.

For `Nc1ncnc2c1ncn2[C@@H]1O[C@H](COP(=O)(O)OP(=O)(O)OP(=O)(O)O)[C@@H](O)[C@H]1O` [ATP], the “decrease in specificity constant (ATP inhibition)” value (recombinant human PFK-L; 1 mM ATP compared with 0.5 mM ATP) was 31%, the “K0.5^ATP” value (recombinant human PFK-L; [5]) was 160 µM and 160.1 (13.5) µM and the “Vmax^ATP” value (recombinant human PFK-L; [5]) was 39.3 (1.2) µmoles/min.mg. For the same molecule, the “kcat^ATP” value (recombinant human PFK-L; [5]) was 57.3 (1.7) s^−1, the “kcat^ATP/K0.5^ATP” value (recombinant human PFK-L; [5]) was 0.36 s^−1 µM^−1 and 0.36 (0.13) s^−1 µM^−1 and the “h (ATP)” value (recombinant human PFK-L; Hill value, ATP titration, F6P 4 mM, n = 6, mean (SD)) was 1.12 (0.08). The K0.5ATP (recombinant human PFK-L; [6]) was 151.2 (16.9) M and 169.0 (21.5) M and the VmaxATP (recombinant human PFK-L; [6]) was 39.26 (1.51) moles/min/mg and 39.36 (1.80) moles/min/mg.

In the case of `O=C(O)CC(O)(CC(=O)O)C(=O)O` [Citrate], the “IC50^citrate” value (recombinant human PFK-L; dose-response) is reported as “no clear relationship”, the “change in kcat^ATP/K0.5^ATP compared with control PFK without modulator” value (recombinant human PFK-L; modulator 600 µM) is reported as “+28%” and the “change in kcat^F6P/K0.5^F6P compared with control PFK without modulator” value (recombinant human PFK-L; modulator 600 µM) is reported as “+2%”. For the same molecule, the “K0.5F6P + modulator” value (recombinant human PFK-L; [1]) was 2471 (244) M, the “VmaxF6P + modulator” value (recombinant human PFK-L; [1]) was 6.52 (0.71) moles/min/mg and the “K0.5ATP + modulator” value (recombinant human PFK-L; [2]) was 108.4 (9.5) M. The “VmaxATP + modulator” value (recombinant human PFK-L; [2]) was 36.14 (1.12) moles/min/mg, the IC50 (PFKM; ref Foe and Kemp, 1985) was 100 µM and the IC50 (PFKM; ref Vora 1985) was 130 µM. The IC50 (PFKL; [7]) was greater than 2000 µM, the IC50 (PFKL; [8]) was 180 µM and the IC50 (PFKP; [7]) was 750 µM. For the same molecule, the IC50 (PFKP; ref Sanchez-Martinez et al., 2000, read-out: IC50 or AC50 (inhibitor)) was 400 µM and the IC50 (PFKP; [8]) was 80 µM.
